Laboratory results reported in patent publication US12060347B2 (BRISTOL-MYERS SQUIBB COMPANY, priority 2016, dated 2024).

biological target: T1, human PAR4 (Homo sapiens, UniProt Q96RI0); assay: PAR4 FLIPR assay: antagonism of agonist-peptide-induced calcium mobilization in PAR4-expressing HEK293 cells; type: cell-based; conditions: H-Ala-Phe(4-F)-[…]NH2-induced intracellular calcium mobilization, 11-point curves
T1 construct: expressed in transfected cells; host or cells: HEK293 PAR4 Clone 1.2A (BMS Arctic ID 383940)
T1 sequence (Q96RI0 18-385): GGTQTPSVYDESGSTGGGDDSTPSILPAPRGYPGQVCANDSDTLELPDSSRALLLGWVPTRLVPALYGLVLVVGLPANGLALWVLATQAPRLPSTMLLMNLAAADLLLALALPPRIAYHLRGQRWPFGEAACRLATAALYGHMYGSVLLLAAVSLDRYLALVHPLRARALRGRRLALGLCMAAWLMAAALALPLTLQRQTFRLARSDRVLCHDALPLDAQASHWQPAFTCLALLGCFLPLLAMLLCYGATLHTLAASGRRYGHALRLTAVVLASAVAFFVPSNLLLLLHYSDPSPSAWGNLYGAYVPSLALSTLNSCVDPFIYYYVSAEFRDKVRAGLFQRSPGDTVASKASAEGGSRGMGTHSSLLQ

| Structure (SMILES) | IC50 |
| --- | --- |
| COc1cnc2c(-c3nc4cc(F)c(OC[C@@H](C)OC(=O)Nc5ccc(C(=O)N(C)CCO)nc5)cc4s3)cc(C)cc2n1 [Example 471, (R)-1-((5-fluoro-2-(2-methoxy-7-methylquinoxalin-5-yl)benzo[d]thiazol-6-yl)oxy)propan-2-yl (6-((2-hydroxyethyl)(methyl)carbamoyl)pyridin-3-yl)carbamate] | 5.2 nM |
| COc1cnc2c(-c3nc4cc(F)c(OC[C@@H](C)OC(=O)Nc5ccc(C(=O)NCC(C)(C)CO)nc5)cc4s3)cc(C)cc2n1 [Example 472, (R)-1-((5-fluoro-2-(2-methoxy-7-methylquinoxalin-5-yl)benzo[d]thiazol-6-yl)oxy)propan-2-yl (6-((3-hydroxy-2,2-dimethylpropyl)carbamoyl)pyridin-3-yl)carbamate] | 4.6 nM |
| COc1cnc2c(-c3nc4cc(F)c(OC[C@@H](C)OC(=O)Nc5ccc(C(=O)NCC6(CO)CCC6)nc5)cc4s3)cc(C)cc2n1 [Example 473, (R)-1-((5-fluoro-2-(2-methoxy-7-methylquinoxalin-5-yl)benzo[d]thiazol-6-yl)oxy)propan-2-yl (6-(((1-(hydroxymethyl)cyclobutyl)methyl)carbamoyl)pyridin-3-yl)carbamate] | 3.4 nM |
| COc1cnc2c(-c3nc4cc(F)c(OC[C@@H](C)OC(=O)Nc5ccc(C(=O)N(C)CC(C)(C)O)nc5)cc4s3)cc(C)cc2n1 [Example 474, (R)-1-((5-fluoro-2-(2-methoxy-7-methylquinoxalin-5-yl)benzo[d]thiazol-6-yl)oxy)propan-2-yl (6-((2-hydroxy-2-methylpropyl)(methyl)carbamoyl)pyridin-3-yl)carbamate] | 11 nM |
| COc1cnc2c(-c3nc4cc(F)c(OC[C@@H](C)OC(=O)Nc5ccc(C(=O)N6CC[C@@H](O)C6)nc5)cc4s3)cc(C)cc2n1 [Example 475] | 4.8 nM |
| COc1cnc2c(-c3nc4cc(F)c(OC[C@@H](C)OC(=O)Nc5ccc(C(=O)N6CC[C@@H](CO)C6)nc5)cc4s3)cc(C)cc2n1 [Example 476, (R)-1-((5-fluoro-2-(2-methoxy-7-methylquinoxalin-5-yl)benzo[d]thiazol-6-yl)oxy)propan-2-yl (6-((R)-3-(hydroxymethyl)pyrrolidine-1-carbonyl)pyridin-3-yl)carbamate] | 10 nM |
| COc1cnc2c(-c3nc4cc(F)c(OC[C@@H](C)OC(=O)Nc5ccc(C(=O)N6CCO[C@H](CO)C6)nc5)cc4s3)cc(C)cc2n1 [Example 477, (R)-1-((5-fluoro-2-(2-methoxy-7-methylquinoxalin-5-yl)benzo[d]thiazol-6-yl)oxy)propan-2-yl (6-((S)-2-(hydroxymethyl)morpholine-4-carbonyl)pyridin-3-yl)carbamate] | 3 nM |
| COc1cnc2c(-c3nc4cc(F)c(OC[C@@H](C)OC(=O)Nc5ccc(C(=O)N6CC[C@H](O)C6)nc5)cc4s3)cc(C)cc2n1 [Example 478, (R)-1-((5-fluoro-2-(2-methoxy-7-methylquinoxalin-5-yl)benzo[d]thiazol-6-yl)oxy)propan-2-yl (6-((S)-3-hydroxypyrrolidine-1-carbonyl)pyridin-3-yl)carbamate] | 9.1 nM |
| COc1cnc2c(-c3nc4cc(F)c(OC[C@@H](C)OC(=O)Nc5ccc(C(=O)N6CC[C@H](CO)C6)nc5)cc4s3)cc(C)cc2n1 [Example 479, (R)-1-((5-fluoro-2-(2-methoxy-7-methylquinoxalin-5-yl)benzo[d]thiazol-6-yl)oxy)propan-2-yl (6-((S)-3-(hydroxymethyl)pyrrolidine-1-carbonyl)pyridin-3-yl)carbamate] | 1.4 nM |
| COc1cnc2c(-c3nc4cc(F)c(OC[C@@H](C)OC(=O)Nc5ccc(C(=O)N6CCO[C@@H](CO)C6)nc5)cc4s3)cc(C)cc2n1 [Example 480, (R)-1-((5-fluoro-2-(2-methoxy-7-methylquinoxalin-5-yl)benzo[d]thiazol-6-yl)oxy)propan-2-yl (6-((R)-2-(hydroxymethyl)morpholine-4-carbonyl)pyridin-3-yl)carbamate] | 3.4 nM |
| COc1cnc2c(-c3nc4cc(F)c(O[C@@H](C)[C@@H](C)OC(=O)Nc5ccc(C(=O)N6CCC[C@H](O)C6)nc5)cc4s3)cc(C)cc2n1 [Example 481, (2R,3S)-3-((5-fluoro-2-(2-methoxy-7-methylquinoxalin-5-yl)benzo[d]thiazol-6-yl)oxy)butan-2-yl (6-((S)-3-hydroxypiperidine-1-carbonyl)pyridin-3-yl)carbamate] | 0.6 nM |
| COc1cnc2c(-c3nc4cc(F)c(O[C@@H](C)[C@@H](C)OC(=O)Nc5ccc(C(=O)N6CC[C@H](CO)C6)nc5)cc4s3)cc(C)cc2n1 [Example 482, (2R,3S)-3-((5-fluoro-2-(2-methoxy-7-methylquinoxalin-5-yl)benzo[d]thiazol-6-yl)oxy)butan-2-yl (6-((S)-3-(hydroxymethyl)pyrrolidine-1-carbonyl)pyridin-3-yl)carbamate] | 0.6 nM |
| COc1cnc2c(-c3nc4cc(F)c(O[C@@H](C)[C@@H](C)OC(=O)Nc5ccc(C(=O)N6CCC[C@@H](O)C6)nc5)cc4s3)cc(C)cc2n1 [Example 483, (2R,3S)-3-((5-fluoro-2-(2-methoxy-7-methylquinoxalin-5-yl)benzo[d]thiazol-6-yl)oxy)butan-2-yl (6-((R)-3-hydroxypiperidine-1-carbonyl)pyridin-3-yl)carbamate] | 0.8 nM |
| COc1cnc2c(-c3nc4cc(F)c(OC[C@@H](C)OC(=O)Nc5ccc(C(=O)N6CCC[C@H](O)C6)nc5)cc4s3)cc(C)cc2n1 [Example 484, (R)-1-((5-fluoro-2-(2-methoxy-7-methylquinoxalin-5-yl)benzo[d]thiazol-6-yl)oxy)propan-2-yl (6-((S)-3-hydroxypiperidine-1-carbonyl)pyridin-3-yl)carbamate] | 1 nM |
| COc1cnc2c(-c3nc4cc(F)c(OC[C@@H](C)OC(=O)Nc5ccc(C(=O)N6CCC[C@@H](O)C6)nc5)cc4s3)cc(C)cc2n1 [Example 485, (R)-1-((5-fluoro-2-(2-methoxy-7-methylquinoxalin-5-yl)benzo[d]thiazol-6-yl)oxy)propan-2-yl (6-((R)-3-hydroxypiperidine-1-carbonyl)pyridin-3-yl)carbamate] | 1.6 nM |
| COc1cnc2c(-c3nc4cc(F)c(O[C@@H](C)[C@@H](C)OC(=O)Nc5ccc(C(=O)N6CCOC[C@@H]6CO)nc5)cc4s3)cc(C)cc2n1 [Example 487, (2R,3S)-3-((5-fluoro-2-(2-methoxy-7-methylquinoxalin-5-yl)benzo[d]thiazol-6-yl)oxy)butan-2-yl (6-((S)-3-(hydroxymethyl)morpholine-4-carbonyl)pyridin-3-yl)carbamate] | 1.3 nM |
| COc1cnc2c(-c3nc4cc(F)c(OC[C@@H](C)OC(=O)Nc5ccc(C(=O)N6CCOC[C@H]6CO)nc5)cc4s3)cc(C)cc2n1 [Example 488, (R)-1-((5-fluoro-2-(2-methoxy-7-methylquinoxalin-5-yl)benzo[d]thiazol-6-yl)oxy)propan-2-yl (6-((R)-3-(hydroxymethyl)morpholine-4-carbonyl)pyridin-3-yl)carbamate] | 14 nM |
| COc1cnc2c(-c3nc4cc(F)c(OC[C@@H](C)OC(=O)Nc5ccc(C(=O)N6CCOC[C@@H]6CO)nc5)cc4s3)cc(C)cc2n1 [Example 489, (R)-1-((5-fluoro-2-(2-methoxy-7-methylquinoxalin-5-yl)benzo[d]thiazol-6-yl)oxy)propan-2-yl (6-((S)-3-(hydroxymethyl)morpholine-4-carbonyl)pyridin-3-yl)carbamate] | 9.1 nM |
| Cc1cc(-c2nc3cc(F)c(O[C@@H](C)[C@@H](C)OC(=O)Nc4cnc(C)nc4)cc3s2)c2ncc(OC(F)F)nc2c1 [Example 490, (2R,3S)-3-((2-(2-(difluoromethoxy)-7-methylquinoxalin-5-yl)-5-fluorobenzo[d]thiazol-6-yl)oxy)butan-2-yl (2-methylpyrimidin-5-yl)carbamate] | 5.1 nM |
| CCCOc1cnc2c(-c3nc4cc(F)c(O[C@@H](C)[C@@H](C)OC(=O)Nc5cnc(C)nc5)cc4s3)cc(C)cc2n1 [Example 491, (2R,3S)-3-((5-fluoro-2-(7-methyl-2-propoxyquinoxalin-5-yl)benzo[d]thiazol-6-yl)oxy)butan-2-yl (2-methylpyrimidin-5-yl)carbamate] | 0.4 nM |
| Cc1cc(-c2nc3cc(F)c(O[C@@H](C)[C@@H](C)OC(=O)Nc4cnc(C)nc4)cc3s2)c2ncc(OC(C)C)nc2c1 [Example 492, (2R,3S)-3-((5-fluoro-2-(2-isopropoxy-7-methylquinoxalin-5-yl)benzo[d]thiazol-6-yl)oxy) butan-2-yl (2-methylpyrimidin-5-yl)carbamate] | 7.4 nM |
| Cc1cc(-c2nc3cc(F)c(O[C@@H](C)[C@@H](C)OC(=O)Nc4cnc(C)nc4)cc3s2)c2ncc(OCCO)nc2c1 [Example 493, (2R,3S)-3-((5-fluoro-2-(2-(2-hydroxyethoxy)-7-methylquinoxalin-5-yl)benzo[d]thiazol-6-yl)oxy)butan-2-yl (2-methylpyrimidin-5-yl)carbamate] | 21 nM |
| COc1cnc2c(-c3nc4c(Cl)c(F)c(OC[C@@H](C)OC(=O)Nc5ccnc(CO)c5)cc4s3)cc(C)cc2n1 [Example 494, (R)-1-((4-chloro-5-fluoro-2-(2-methoxy-7-methylquinoxalin-5-yl)benzo[d]thiazol-6-yl)oxy)propan-2-yl (2-(hydroxymethyl)pyridin-4-yl)carbamate] | 1.8 nM |
| COc1cnc2c(-c3nc4cc(F)c(OC[C@@H](C)OC(=O)Nc5ccnc(CO)c5)cc4s3)cc(C)cc2n1 [Example 495, (R)-1-((5-fluoro-2-(2-methoxy-7-methylquinoxalin-5-yl)benzo[d]thiazol-6-yl)oxy)propan-2-yl (2-(hydroxymethyl)pyridin-4-yl)carbamate] | 15 nM |
